Experimental data reported in PubChem BioAssay AID1918938 (Molecular Pharmacology Branch, DTP, NCI, 2023).
Values joined by “and” are separate entries in the source; they are usually repeats but may differ in a detail not shown here. Identical values can stand only once.

Test system: 556581-035-R-J1-PDC complex spheroid viability
Assay: Anticancer human tumor 556581-035-R-J1-PDC patient-derived ovarian carcinoma cell line growth inhibition
Details: for viability, T/C: stronger effect = lower value; for IC50: curve of compound
From the text: Multicellular complex tumor spheroid response to LSD1 Inhibitor Iadademstat in combination with a variety of drugs and investigational agents in selected tumor cell lines
The current study was undertaken to assess response to LSD1 inhibitors in combination with standard-of-care drugs and investigational agents in solid tumor complex spheroid models as well as in the K-562 leukemia. Complex spheroids include a stromal component modeled by human endothelial cells (HUVEC) and fibroblasts modeled by human mesenchymal stem cells (MSCs). The concentration ranges selected for each drug and investigational agent were based upon clinically achievable concentrations if the clinical Cmax of the agent was known.
Compounds. The drugs and investigational agents used in this study are listed on Table 1. All of the agents used, including staurosporine (NSC755774) and gemcitabine (NSC613327), were obtained from the Developmental Therapeutics Program, NCI. FDA-approved anticancer drugs are available from the NCI at http://dtp.nci.nih.gov/branches/dscb/oncology_drugset_explanation.html. Drugs and investigational agents were >95% pure by proton nuclear magnetic resonance (NMR) and liquid chromatography/mass spectrometry (LC/MS). Stock solutions were prepared at 400x in DMSO, stored at -70 degrees C, and diluted in fresh medium prior to their use. The final concentration of DMSO in cell culture wells never exceeded 0.25% (v/v). The FDA-approved anticancer drug set is available from the Developmental Therapeutics Program at https://dtp.cancer.gov/organization/dscb/obtaining/available_plates.htm. All drugs and investigational agents were tested over a range starting from a high concentration at or near the clinical Cmax and decreasing in half-log increments. If the clinical Cmax for an agent had not been determined, the highest concentration tested was 10 microM.
Cell Lines. The patient-derived cancer cell (PDC) lines: 292921-168-R-J2-PDC, K24384-001-R-PDC, and 521955-158-R2-J5-PDC pancreatic carcinomas, 556581-035-R-J1 ovarian carcinoma, 324938-238-R-J1-PDC, 855422-203-R-J1-PDC and 883617-216-R-J1-PDC urothelial bladder carcinomas, 743489-274-T-PDC renal cell carcinoma, 138582-R-J1 Merkel cell tumor, K60290-347-R-J1 and K57222-313-R-J1-PDC glioblastomas, 653999-131-R-J2-PDC, LG0703-F948-PDC, and 349418-098-R-PDC non-small cell lung carcinomas, 885512-296-R-J2-PDC, 171881-019-R-J1-PDC breast carcinomas and 186277-243-T-J2-PDC and 233499-124-R-J2-PDC colon carcinomas were obtained from the NCI Patient-Derived Models Repository (PDMR, https://pdmr.cancer.gov). The established cell lines NCI/ADR-RES (RRID:CVCL_14520 and OVCAR-5 (RRID:CVCL_1628) ovarian carcinomas, 786-O (RRID:CVCL_1051) and A498 (RRID:CVCL_A498) renal cell carcinoma, NCI-H211 (ATCC, cat. CRL-5824; RRID:CVCL_1529), NCI-H196 (ATCC, cat. CRL-5823, RRID:CVCL_1509), SW 1271 (ATCC, cat. CRL-2177, RRID:CVCL_1716) and NCI-H1876 (ATCC, cat. CRL-5902, RRID:CVCL_1503) small cell lung carcinomas, MDA-MB-231 (RRID:CVCL_0062) and MDA-MB-468 (RRID:CVCL_0419)breast carcinomas (10-12). Pooled donor human umbilical vein endothelial cells (HUVEC, Lonza, cat. CC-2519) and human mesenchymal stem cells (hMSC, Lonza, cat. PT-2501) were purchased from Lonza (Walkersville, MD).
Cell Culture. All cells were maintained in an incubator at 37 degrees C and 5% CO2 with 95% humidity. The PDC lines were cultured according to standard operating procedures established by the NCI PDMR (https://pdmr.cancer.gov). Briefly all PDCs were thawed and cultured in Matrigel-coated flasks prepared with a working solution of 1X Ham's F-12 nutrient mix, without supplementation (Invitrogen, Waltham, MA, cat. 11765054), 100 U/mL penicillin-streptomycin (Invitrogen, cat. 15140122), and 2.5% Matrigel (Corning Inc., Corning, NY, cat. 354248) for the first three passages. […]
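Further: spheroids exposed to agents for seven days.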
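Wherever viability, T/C is given: 100% = DMSO vehicle control wells.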

| IC50 | SMILES | viability, T/C (compound 0.000316 µM) | viability, T/C (compound 0.001 µM) | viability, T/C (compound 0.00316 µM) | viability, T/C (compound 0.01 µM) | viability, T/C (compound 0.0316 µM) | viability, T/C (compound 0.1 µM) | viability, T/C (compound 0.316 µM) | viability, T/C (compound 1 µM) | viability, T/C (compound 3.16 µM) | viability, T/C (compound 10 µM) | viability, T/C (compound 0.00949 µM) | viability, T/C (compound 0.03 µM) | viability, T/C (compound 0.0949 µM) | viability, T/C (compound 0.3 µM) | viability, T/C (compound 0.949 µM) | viability, T/C (compound 3 µM) | viability, T/C (compound 0.000949 µM) | viability, T/C (compound 0.003 µM) |
| --- | --- | --- | --- | --- | --- | --- | --- | --- | --- | --- | --- | --- | --- | --- | --- | --- | --- | --- | --- |
| < 0.316 nM | CC(C)CC(NC(=O)C(Cc1ccccc1)NC(=O)c1cnccn1)B(O)O (stereo unspecified) | 7.73% and 2.05% | 0.26% and 0.43% | 1.04% and 0.46% | 0.22% and 0.28% | 0.85% and 0.24% | 0.44% and 0.39% |  |  |  |  |  |  |  |  |  |  |  |  |
| 4.06 nM and 2.91 nM | CC(C)CC(NC(=O)CNC(=O)c1cc(Cl)ccc1Cl)B1OC(=O)CC(CC(=O)O)(C(=O)O)O1 (stereo unspecified) | 99.8% and 102% | 98.2% and 102% | 63.3% and 46% | 2.06% and 2.7% | 0.74% and 1.23% | 0.66% and 0.61% |  |  |  |  |  |  |  |  |  |  |  |  |
| > 10000 nM | CC(C)c1c(-c2ccccc2)nc2c(C#N)c[nH]n2c1=O |  |  |  |  | 93.8% and 102% | 105% and 100% | 107% | 91.4% and 101% | 75.4% and 90.9% | 72.7% and 71.9% |  |  |  |  |  |  |  |  |
| 4470 nM and 5040 nM | CC1(C)CCC(CN2CCN(c3ccc(C(=O)NS(=O)(=O)c4ccc(NCC5CCOCC5)c([N+](=O)[O-])c4)c(Oc4cnc5[nH]ccc5c4)c3)CC2)=C(c2ccc(Cl)cc2)C1 |  |  |  |  | 97.5% and 84.5% | 95.1% and 89.4% | 85.2% and 79.3% | 81% and 90.1% | 68.8% and 79.1% | 13.5% and 7.08% |  |  |  |  |  |  |  |  |
| 52.9 nM and 8.58 nM | CC1COCCN1c1cc(-c2ccnn2C)c2ccnc(-c3ccn[nH]3)c2n1 (stereo unspecified) |  |  | 70% and 55.8% | 65.8% and 55.1% | 51.8% and 34.4% | 42.8% and 25.6% | 36.3% and 26.9% | 14.7% and 9.75% |  |  |  |  |  |  |  |  |  |  |
| > 10000 nM | CC1COCCN1c1cc(C2(S(C)(=N)=O)CC2)nc(-c2ccnc3[nH]ccc23)n1 (stereo unspecified) |  |  |  |  | 107% | 110% and 94.2% | 95.2% and 97.8% | 79.8% and 74.4% | 68.2% and 69.1% | 62.3% and 52.5% |  |  |  |  |  |  |  |  |
| 2010 nM and 895 nM | CCN(c1cc(-c2ccc(CN3CCOCC3)cc2)cc(C(=O)NCc2c(C)cc(C)[nH]c2=O)c1C)C1CCOCC1 |  |  |  |  |  |  |  |  |  |  | 101% and 102% | 105% and 88.1% | 87.8% and 88.1% | 81.4% and 79.2% | 60.2% and 46.9% | 44.3% and 24.2% |  |  |
| 15.2 nM and 6.17 nM | CC[C@@]1(O)C(=O)OCc2c1cc1n(c2=O)Cc2cc3c(CN(C)C)c(O)ccc3nc2-1 | 95.5% and 101% | 96.8% and 101% | 78.7% and 73.8% | 57.1% and 32.2% | 35.8% and 14% | 10% and 7.12% |  |  |  |  |  |  |  |  |  |  |  |  |
| < 0.949 nM | CCc1c2c(nc3ccc(O)cc13)-c1cc3c(c(=O)n1C2)COC(=O)[C@]3(O)CC |  |  |  |  |  |  |  |  |  |  | 2.19% and 1.59% | 0.61% and 0.44% | 0.29% and 0.42% | 0.34% and 0.39% |  |  | 17.5% and 12% | 11.2% and 9.45% |
| 620 nM and 176 nM | COc1cc(C2c3cc4c(cc3C(OC3OC5COC(C)OC5C(O)C3O)C3COC(=O)C23)OCO4)cc(OC)c1O (stereo unspecified) |  |  |  |  |  |  |  |  |  |  | 89% and 94.3% | 82.8% and 76.5% | 70% and 56.9% | 65.7% and 40.6% | 41.2% and 33.2% | 23.5% and 15.7% |  |  |
|  | COc1cc(Nc2ncc3c(n2)-c2ccc(Cl)cc2C(c2c(F)cccc2OC)=NC3)ccc1C(=O)O |  |  | 68.5% and 68.6% | 67.9% and 49.6% | 78.5% and 43.2% | 60.9% and 45.6% | 51.1% and 41.2% | 39.2% and 29.9% |  |  |  |  |  |  |  |  |  |  |
